Reference: patent publication US10662210B2, “Compositions and methods comprising osmium for the treatment of cancers” (Massachusetts Institute of Technology, priority 2014, dated 2020)

Test system: ct-DNA
Assay: DNA binding kinetics (osmium bound to precipitated ct-DNA)
Settings: 25 μM complex, 250 μM ct-DNA, 37° C.
Protocol: The osmium compounds were hypothesized to induce cell death through DNA interactions. Therefore, the interaction of 2 or 4 with pUC19 plasmid DNA was investigated using gel electrophoresis; the results of which are as shown in FIG. 6. As the concentration of 2 increased, there was a clear increase in the amount of nicked circular, and a concomitant decrease in the amount of supercoiled, plasmid DNA. At concentrations >250 μM, the bands in the gel smeared and then disappeared. […] The DNA binding kinetics of 2 and 4 were studied by measuring the amount of osmium bound to precipitated ct-DNA; the results of which are as shown in FIG. 7. The half-life of this reaction for 2 was 2 hours.
The amount of osmium covalently bound to ct-DNA was determined by modification of a previously reported protocol. A solution of ct-DNA (0.25 mM, nucleotide) was incubated with 2 or 4 at a bp:metal complex ratio of 5:1 at 37° C. in 1 mM sodium phosphate buffer, pH 7.4, containing 3 mM NaCl. At certain time points, a 250 μL aliquot was removed and the DNA was precipitated by adding 10 μL of NaCl (5 M) and 1.0 mL of EtOH (stored at 4° C.). The solution was centrifuged to remove DNA, and the concentration of unbound osmium was determined by GF-AAS.

In the case of `[N]#[Os]1([Cl])([Cl])([Cl])[N]2C=CC=c3ccc4c(c32)[N]1C=CC=4` [Complex 2, OsN(1,10-phenanthroline)Cl3], the “half-life of ct-DNA binding reaction” value was 2 h.
